According to patent publication US20130115628A1, “METHOD FOR SELECTION OF CHEMOTHERAPEUTIC AGENTS FOR ADENOCARCINOMA CANCER” (VENTANA MEDICAL SYSTEMS, INC., priority 2011, published 2013):

Assays:
[1] = system: pancreatic adenocarcinoma; assay: Retrospective study of tumor hENT1 expression (IHC, SP120) and overall survival in RTOG 9704 patients given adjuvant gemcitabine or 5FU; assay type: in vivo, human; set-up: Median OS in Gem hENT1-Low Patients / Median OS in Gem hENT1-High Patients: unit not given here; conditions: for median OS as hENT1 expression increases from No to Low to High: Method Five (percent negative staining), FIG. 18; for median OS as hENT1 expression increases from Negative to Weak to Moderate to Strong: Method Four (staining intensity), FIG. 30; for median OS as hENT1 expression (H-score subgroup) increases: Method One (H-score), FIG. 22; for OS across High, Mid and No hENT1 subgroups: Method Six with No hENT1 category (membranes resolvable at 10×), FIGS. 33-34; for OS of Low hENT1 subgroup compared to High hENT1 subgroup: Method Six; for median OS as hENT1 expression increases from Negative to Segmental to Diffuse: Method Three (staining pattern), FIG. 26; for OS of subgroup N, 20× or 40× compared to subgroup PP at 2×, 4× or 10×: Method Two (magnification), FIGS. 15-16; for HR (CI) for hENT1-Low vs -High in Gem Patients / HR for Gem vs 5-FU in hENT1-High Patients / HR for Gem vs 5-FU in hENT1-Low Patients: overall survival
Source text: Method One for determining a hENT1 endpoint is an H-score. The H-score is a continuous variable that takes into account both the percentage of cells that are positive for the antigen in question, as well as the intensity of staining with the relevant antibody (McCarty et al. (1986) Cancer Research (Supp) 46, 4244s-4248s). A scoring algorithm was used to capture the hENT1 expression results. […]
Method Four for determining a hENT1 endpoint is based on highest percentage of hENT1 membrane staining intensity. The staining intensity for a tissue core is determined using the parameters described for the H-score (0, 1+, 2+, 3+). The percentage of each parameter represented by the tumor is determined. If a score of only 0 is obtained, the endpoint is considered Negative (N). For all other samples (e.g. those that contain scores with 0, 1+, 2+, and/or 3+), the endpoint is determined by the non-0 membrane intensity represented in the highest percentage (see FIG. 1). For example, if the sample is 50% 0, 20% 1+, 30% 2+ and 0% 3+, such sample would be referred to as 2+. If 2 intensities have the same percentage then the lower of the 2 intensities is used. A staining intensity score of 0 is referred to as Negative (N), a staining intensity score of 1+ is referred to as Weak (W), a staining intensity score of 2+ is referred to as Moderate (M), and a staining intensity score of 3+ is referred to as Strong (S). If there are multiple evaluations made on a patient, the maximum result (i.e., S>M>W) from the evaluations is used. There may be circumstances where if multiple evaluations are made on a patient, the minimum result from the evaluations is used. […]

[2] = system: pancreatic cancer; conditions: Stage III/IV disease, gemcitabine monotherapy; cited from earlier work
[3] = 50% tumor staining, Low group: >50% of tumor is negative
[4] = Magnification (intensity), Low group: unequivocal membranes visible only at 20x, 40x or negative
[5] = Magnification and % tumor staining, Low group: membranes visible only at 20x, 40x or negative OR >=50% of tumor is negative
[6] = High = PP at 2×, 4× and/or 10× AND negative tumor tissue <=50%, FIGS. 7-8
[7] = High = at least 50% of tumor displays membrane staining at 10× ocular, FIGS. 4-5
[8] = staining variable H-score, Low group: H-score <50

SMILES: Nc1ccn([C@@H]2O[C@H](CO)[C@@H](O)C2(F)F)c(=O)n1 [gemcitabine]
- Median OS in Gem hENT1-High Patients [1, 3]: 19.6
- Median OS in Gem hENT1-Low Patients [1, 3]: 14.2
- Median OS in Gem hENT1-High Patients [1, 4]: 21.0
- Median OS in Gem hENT1-Low Patients [1, 4]: 14.8
- Median OS in Gem hENT1-High Patients [1, 5]: 24.2
- Median OS in Gem hENT1-Low Patients [1, 5]: 14.8
- median OS as hENT1 expression increases from No to Low to High [1]: increases
- OS of No hENT1 subgroup compared to Low and High hENT1 subgroups ([1]; Method Five, FIG. 19): exhibited shorter OS
- OS of patients with observable hENT1 expression (Low and High combined) compared to no hENT1 expression ([1]; Method Five, FIG. 20): exhibit longer OS
- median OS as hENT1 expression increases from Negative to Weak to Moderate to Strong [1]: increases
- OS of negative hENT1 subgroup compared to Weak, Moderate or Strong subgroups ([1]; Method Four, FIG. 31): exhibited shorter OS
- median OS as hENT1 expression (H-score subgroup) increases [1]: increases
- OS of subgroup H-score<=20 compared to H-score between 20 and 80 and H-score>=80 ([1]; Method One, FIG. 23): exhibited shorter OS
- OS of patients with H-score>=50 compared to H-score <50 ([1]; Method One, FIG. 24): exhibited longer OS
- OS across High, Mid and No hENT1 subgroups [1]: the subgroup with No hENT1 expression exhibited the shortest OS followed by the Mid hENT1 subgroup and the High hENT1 subgroup had the longest OS
- OS of Low hENT1 subgroup compared to High hENT1 subgroup [1, 6]: exhibited shorter OS
- OS of Low hENT1 subgroup compared to High hENT1 subgroup [1, 7]: exhibited shorter OS
- median OS as hENT1 expression increases from Negative to Segmental to Diffuse [1]: increases
- OS of negative hENT1 subgroup compared to Segmental or Diffuse subgroups ([1]; Method Three, FIG. 27): exhibited shorter OS
- OS of patients with detectable hENT1 expression (S or D) compared to no hENT1 expression ([1]; Method Three, FIG. 28): exhibit longer OS
- OS of subgroup N, 20× or 40× compared to subgroup PP at 2×, 4× or 10× [1]: exhibited shorter OS
- median overall survival of hENT1-high patients compared to hENT1-low patients ([1]; for each of the hENT1 cut-offs of Table 2): longer
- HR (CI) for hENT1-Low vs -High in Gem Patients [1, 3]: 0.61
- HR for Gem vs 5-FU in hENT1-High Patients [1, 3]: 0.84
- HR for Gem vs 5-FU in hENT1-Low Patients [1, 3]: 1.37
- HR (CI) for hENT1-Low vs -High in Gem Patients [1, 4]: 0.67
- HR for Gem vs 5-FU in hENT1-High Patients [1, 4]: 0.87
- HR (CI) for hENT1-Low vs -High in Gem Patients [1, 5]: 0.58
- HR for Gem vs 5-FU in hENT1-High Patients [1, 5]: 0.77
- HR (CI) for hENT1-Low vs -High in Gem Patients [1, 8]: 0.63
- HR for Gem vs 5-FU in hENT1-High Patients [1, 8]: 0.86
- HR for Gem vs 5-FU in hENT1-Low Patients [1, 8]: 1.35
- Median OS in Gem hENT1-High Patients [1, 8]: 19.6
- Median OS in Gem hENT1-Low Patients [1, 8]: 14.2
- median OS [2]: 5-7 months

SMILES: O=c1[nH]cc(F)c(=O)[nH]1 [5FU, 5-Fluorouracil]
- median OS as hENT1 expression increases from No to Low to High [1]: do not demonstrate an improvement in OS with increasing hENT1 expression
- median OS as hENT1 expression increases from Negative to Weak to Moderate to Strong [1]: do not demonstrate an improvement in OS with increasing hENT1 expression
- median OS as hENT1 expression (H-score subgroup) increases [1]: do not demonstrate an improvement in OS with increasing hENT1 expression
- OS across High, Mid and No hENT1 subgroups [1]: do not demonstrate improvement in OS between the High, Mid and No hENT1 subgroups
- OS of Low hENT1 subgroup compared to High hENT1 subgroup [1, 6]: do not demonstrate improvement in OS between the High and Low subgroups
- OS of Low hENT1 subgroup compared to High hENT1 subgroup [1, 7]: do not demonstrate improvement in OS between the High and Low subgroups
- median OS as hENT1 expression increases from Negative to Segmental to Diffuse [1]: do not demonstrate an improvement in OS with increasing hENT1 expression
- OS of subgroup N, 20× or 40× compared to subgroup PP at 2×, 4× or 10× [1]: do not demonstrate an improvement in OS
